Assay results: US6686443
Read-outs that look alike come from different tables or passages of the source.

Conditions: disulfide bond

COc1ccc(C[C@@H]2NC(=O)CC(C)(C)SSC[C@@H](C(=O)N3CCC[C@H]3C(=O)N[C@@H](CCCNC(=N)N)C(=O)NCC(N)=O)NC(=O)[C@H](CC(N)=O)NC(=O)[C@H](CCC(N)=O)NC(=O)[C@H](Cc3ccccc3)NC2=O)cc1
ring closure, conversion (from HSC(Me)2CH2CO-Tyr(Me)-Phe-Gln-Asn-Cys-Pro-Arg-Gly-NH2, 20-membered ring, trans-[Pt(en)2Cl2]2+): 97%

CC(=O)N[C@H]1CSSC[C@@H](C(N)=O)NC(=O)[C@@H]2CCCN2C(=O)CNC1=O [Ac-Cys-Gly-Pro-Cys-NH2]
ring closure, conversion (from Ac-Cys-Gly-Pro-Cys-NH2, 14-membered ring, trans-[Pt(en)2Cl2]2+): 100%

CC(=O)N[C@H]1CSSC[C@@H](C(N)=O)NC(=O)[C@H](C)NC(=O)[C@H](C)NC(=O)[C@H](Cc2ccccc2)NC(=O)[C@@H]2CCCN2C1=O [Ac-Cys-Pro-Phe-Ala-Ala-Cys-NH2]
ring closure, conversion (from Ac-Cys-Pro-Phe-Ala-Ala-Cys-NH2, 20-membered ring, trans-[Pt(en)2Cl2]2+): 100%

CC(=O)N[C@H]1CSSC[C@@H](C(N)=O)NC(=O)[C@H](Cc2ccccc2)NC(=O)[C@@H]2CCCN2C1=O [Ac-Cys-Pro-Phe-Cys-NH2]
ring closure, conversion (from Ac-Cys-Pro-Phe-Cys-NH2, 14-membered ring, trans-[Pt(en)2Cl2]2+): 97%

CC(=O)N[C@@H](CCCCN)C(=O)N1CCC[C@H]1C(=O)N[C@H](C(=O)N[C@H]1CSSC[C@@H](C(=O)N[C@@H](CCCNC(=N)N)C(=O)N[C@@H](CCCCN)C(=O)N[C@H](C(N)=O)[C@@H](C)O)NC(=O)[C@H](Cc2ccccc2)NC(=O)[C@@H]2CCCN2C1=O)[C@@H](C)O [Ac-Lys-Pro-Thr-Cys-Pro-Phe-Cys-Arg-Lys-Thr-NH2]
ring closure, conversion (from Ac-Lys-Pro-Thr-Cys-Pro-Phe-Cys-Arg-Lys-Thr-NH2, 14-membered ring, trans-[Pt(en)2Cl2]2+): 100%

CC(=O)N1CCC[C@H]1C(=O)N[C@H](C(=O)N[C@H]1CSSC[C@@H](C(=O)N[C@@H](CCCNC(=N)N)C(=O)N[C@@H](CCCCN)C(N)=O)NC(=O)[C@H](Cc2ccccc2)NC(=O)[C@@H]2CCCN2C1=O)[C@@H](C)O [Ac-Pro-Thr-Cys-Pro-Phe-Cys-Arg-Lys-NH2]
ring closure, conversion (from Ac-Pro-Thr-Cys-Pro-Phe-Cys-Arg-Lys-NH2, 14-membered ring, trans-[Pt(en)2Cl2]2+): 100%

CC[C@H](C)[C@H](NC(=O)[C@H](CC(=O)O)NC(=O)[C@@H](NC(C)=O)[C@@H](C)O)C(=O)N[C@H](C(=O)N[C@H]1CSSC[C@@H](C(=O)N[C@@H](Cc2c[nH]cn2)C(=O)N[C@@H](CCCCN)C(=O)N[C@@H](CC(C)C)C(=O)N[C@@H](Cc2c[nH]cn2)C(N)=O)NC(=O)[C@H](Cc2ccc(O)cc2)NC(=O)CNC1=O)[C@@H](C)O [Ac-Thr-Asp-Ile-Thr-Cys-Gly-Tyr-Cys-His-Lys-Leu-His-NH2]
ring closure, conversion (from Ac-Thr-Asp-Ile-Thr-Cys-Gly-Tyr-Cys-His-Lys-Leu-His-NH2, 14-membered ring, trans-[Pt(en)2Cl2]2+): 100%

CC(=O)N[C@H](C(=O)N[C@H]1CSSC[C@@H](C(=O)N[C@@H](CCCNC(=N)N)C(N)=O)NC(=O)[C@H](Cc2ccccc2)NC(=O)[C@@H]2CCCN2C1=O)[C@@H](C)O [Ac-Thr-Cys-Pro-Phe-Cys-Arg-NH2]
ring closure, conversion (from Ac-Thr-Cys-Pro-Phe-Cys-Arg-NH2, 14-membered ring, trans-[Pt(en)2Cl2]2+): 100%

CSCC[C@H](NC(=O)[C@H](CC(C)C)NC(=O)[C@@H]1CCCN1C(=O)[C@H](Cc1ccc(O)cc1)NC(=O)[C@H](Cc1ccccc1)NC(=O)[C@@H]1CSSC[C@H](NC(=O)[C@@H]2CCCN2C(=O)[C@@H](N)CCCNC(=N)N)C(=O)N2CCC[C@H]2C(=O)N[C@@H](CCC(N)=O)C(=O)N1)C(N)=O [H-Arg-Pro-Cys-Pro-Gln-Cys-Phe-Tyr-Pro-Leu-Met-NH2]
ring closure, conversion (from H-Arg-Pro-Cys-Pro-Gln-Cys-Phe-Tyr-Pro-Leu-Met-NH2, 14-membered ring): 99%

N=C(N)NCCC[C@H](NC(=O)[C@@H]1CCCN1C(=O)[C@@H]1CSSC[C@H](N)C(=O)N[C@@H](Cc2ccc(O)cc2)C(=O)N[C@@H](Cc2ccccc2)C(=O)N[C@@H](CCC(N)=O)C(=O)N[C@@H](CC(N)=O)C(=O)N1)C(=O)NCC(N)=O [arginine-vasopressin]
ring closure, conversion (from H-Cys-Tyr-Phe-Gln-Asn-Cys-Pro-Arg-Gly-NH2, 20-membered ring, trans-[Pt(en)2Cl2]2+): 100%

CC[C@H](C)[C@@H]1NC(=O)[C@H](Cc2ccc(O)cc2)NC(=O)[C@@H](N)CSSC[C@@H](C(=O)N2CCC[C@H]2C(=O)N[C@@H](CC(C)C)C(=O)NCC(N)=O)NC(=O)[C@H](CC(N)=O)NC(=O)[C@H](CCC(N)=O)NC1=O [oxytocin]
ring closure, conversion (from H-Cys-Tyr-Ile-Gln-Asn-Cys-Pro-Leu-Gly-NH2, 20-membered ring, trans-[Pt(en)2Cl2]2+): 98%

NC(=O)CC[C@@H]1NC(=O)[C@H](Cc2ccccc2)NC(=O)[C@H](Cc2ccc(O)cc2)NC(=O)[C@@H](N)CSSC[C@@H](C(=O)O)NC(=O)[C@H](CC(N)=O)NC1=O [pressinoic acid]
ring closure, conversion (from H-Cys-Tyr-Phe-Gln-Asn-Cys-OH, 20-membered ring, trans-[Pt(en)2Cl2]2+): 100%

H-Cys-Phe-Gly-Ser-Arg-Ile-Asp-Arg-Ile-Gly-Ala-Gln-Ser-Gly-Met-Gly-Cys-Gly-Arg-Phe-OH
ring closure, conversion (the molecule shown is the open-chain precursor, 53-membered ring, trans-[Pt(en)2Cl2]2+, phosphate buffer pH 6.0, 0.04 mM): 100%

somatostatin
ring closure, conversion (38-membered ring): 99%
